# Laboratory results taken from patent publication US8530492B2, “Oligomer-protein tyrosine kinase inhibitor conjugates” (Nektar Therapeutics, priority 2009, dated 2013).
# System: Caco-2 cells
# Assay: Caco-2 permeability (bi-directional; pH 7.4/pH 7.4)
# Format: in vitro ADME, human
# Conditions: Caco-2, 10 μM, 120 minutes
# Protocol: Caco-2 cells are used as an in vitro model of the human intestinal epithelium and permit assessment of the intestinal permeability of potential drugs. Test compound is added to either the apical or basolateral side of a confluent monolayer of Caco-2 cells and permeability is measured by monitoring the appearance of the test compound on the opposite side of the membrane using LC-MS/MS. Apparent permeability (Papp) coefficients, efflux ratio for the test compound and recovery values were determined.
# To measure the permeability of test compound in the apical to basolateral (A-B) and basolateral to apical (B-A) direction across Caco-2 cells.
# Caco-2 cells obtained from the ATCC are used between passage numbers 40-60. Cells are seeded on to Millipore Multiscreen Caco-2 plates at 1×10^5 cells/cm^2. They are cultured for 20 days in DMEM and media is changed every two or three days. On day 20 the permeability study is performed.
# On day 20, the monolayers are prepared by rinsing both basolateral and apical surfaces twice with HBSS at 37° C. Cells are then incubated with HBSS in both apical and basolateral compartments for 40 min to stabilize physiological parameters. HBSS is then removed from the apical compartment and replaced with test compound dosing solutions. […] The fluorescent integrity marker lucifer yellow is also included in the dosing solution. Analytical standards are made from dosing solutions. The apical compartment inserts are then placed into ‘companion’ plates containing fresh HBSS. For basolateral to apical (B-A) permeability determination the experiment is initiated by replacing buffer in the inserts then placing them in companion plates containing dosing solutions. At 120 minutes the companion plate is removed and apical and basolateral samples diluted for analysis by LC-MS/MS. Test compound permeability was assessed in duplicate. On each plate, compounds of known permeability characteristics were run as controls.
# Test and control compounds were quantified by LC-MS/MS cassette analysis using a 5-point calibration with appropriate dilution of the samples. Cyprotex generic analytical conditions were used. The starting concentration (C0) and experimental recovery were calculated from both apical and basolateral compartment concentrations.
# The integrity of the monolayers throughout the experiment was checked by monitoring lucifer yellow permeation using fluorimetric analysis. Lucifer yellow permeation is low if monolayers have not been damaged. […] If lucifer yellow Papp values are above QC limits in both replicate wells for a test compound, the compound was re-tested.
# Data Analysis: The permeability coefficient for each compound (Papp) is calculated from the following equation:
# [formula] wherein dQ/dt is the rate of permeation of the drug across the cells, C0 is the donor compartment concentration at time zero and A is the area of the cell monolayer. C0 is obtained from analysis of donor and receiver compartments at the end of the incubation period. It is assumed that all of the test compound measured after 120 minutes incubation was initially present in the donor compartment at 0 minutes. An efflux ratio (ER) is derived as follows:
# Talinolol (a known P-gp substrate) is also included as a control compound to assess whether functional P-gp is present in the Caco-2 cell monolayer.
row,"Permeability (apparent permeability, Papp (A-B)) [×10⁻⁶ cm/s]",Structure (SMILES)
1,4 ± 0.8,COCCOCCOCCN1CCN(Cc2ccc(C(=O)Nc3ccc(C)c(Nc4nccc(-c5cccnc5)n4)c3)cc2)CC1 [mPEG3-N′-Imatinib]
2,1 ± 0.2,COCCOCCOCCOCCOCCN1CCN(Cc2ccc(C(=O)Nc3ccc(C)c(Nc4nccc(-c5cccnc5)n4)c3)cc2)CC1 [mPEG5-N′-Imatinib]
3,0.05 ± 0.02,COCCOCCOCCOCCOCCOCCOCCOCCOCCN1CCN(Cc2ccc(C(=O)Nc3ccc(C)c(Nc4nccc(-c5cccnc5)n4)c3)cc2)CC1 [mPEG9-N′-Imatinib]

# More lines, now with the values behind:
row,Structure (SMILES),"Permeability (apparent permeability, Papp (A-B)) [×10⁻⁶ cm/s]"
1,COCCOCCOCCOCCOCCOCCOCCNCc1ccc(C(=O)Nc2ccc(C)c(Nc3nccc(-c4cccnc4)n3)c2)cc1,0.04 ± 0.01
2,COCCOCCOCCNCc1ccc(C(=O)Nc2ccc(C)c(Nc3nccc(-c4cccnc4)n3)c2)cc1 [mPEG3-N-Imatinib],0.6 ± 0.07
3,COCCOCCOCCOCCOCCNCc1ccc(C(=O)Nc2ccc(C)c(Nc3nccc(-c4cccnc4)n3)c2)cc1 [mPEG5-N-Imatinib],0.05 ± 0.02
4,COCCOCCOCCOCCOCCOCCOCCN1CCN(Cc2ccc(C(=O)Nc3ccc(C)c(Nc4nccc(-c5cccnc5)n4)c3)cc2)CC1 [mPEG7-N′-Imatinib],0.3 ± 0.01
5,COCCOCCOCCOCCOCCOCCOCCOCCOCCNCc1ccc(C(=O)Nc2ccc(C)c(Nc3nccc(-c4cccnc4)n3)c2)cc1 [mPEG9-N-Imatinib],0.01 ± 0.004
